From patent US7700613B2, “Use of 7-t-butoxyiminomethylcamptothecin for the preparation of a medicament for the treatment of uterine neoplasms” (Sigma-Tau Farmaceutiche Riunite, S.p.A., priority 2004, dated 2010) come the findings set out here.

Assay [1] has as its system uterine cancers, both of the cervix and the endometrium. The assay is described as follows: European phase I trial of gimatecan as single therapeutic agent in patients with advanced cancers. The class given is in vivo. As for the experimental part:
In the light of this preclinical evidence, a European phase I trial was conducted in which gimatecan was administered as a single therapeutic agent with different administration regimens. The patients studied were affected by advanced cancers for which curative or standard therapy was no longer indicated. Although the aim of the study was to assess the tolerability of the treatment with gimatecan, in the course of this clinical trial gimatecan produced a number of lasting objective clinical responses. Particularly worthy of mention are the responses of a number of patients with uterine cancers, both of the cervix and the endometrium, including forms which had received substantial previous treatments and presented metastatic disease.
These responses were subjected to two independent assessments by experts not taking part in the clinical trial, who confirmed the observations.

The nature of assay [2]: preclinical trials in vivo. An excerpt: Gimatecan is a new anticancer compound that has shown a high therapeutic index in preclinical trials in vivo. Moreover, gimatecan is characterised by an anticancer activity that is maintained with different administration regimens, both intermittent and prolonged.

For `CC[C@@]1(O)C(=O)OCc2c1cc1n(c2=O)Cc2c-1nc1ccccc1c2/C=N/OC(C)(C)C` [gimatecan, 7-terbutoxyiminomethylcamptothecin], the objective clinical response entry in assay [1] (patients with uterine cancers (cervix and endometrium), incl. substantially pretreated and metastatic disease, assessed by computed tomography, confirmed by two independent assessments) is listed as “partial responses”. In assay [1] (responding patients with uterine cancers, diagnostic imaging such as computed tomography, definition of partial response), the “reduction of the tumour lesion or lesions” value is listed as “more than 30%”. In assay [2], the therapeutic index result was “high”.
